Laboratory results from patent US20240156764A1, “INHIBITION OF URACIL DNA GLYCOSYLASE IN THE OPEN CONFORMATION” (CASE WESTERN RESERVE UNIVERSITY, priority 2022, published 2024).
Several values for one entry are separate records, joined by “and”; a condition that tells them apart may be missing. Identical values can stand only once. Like-named read-outs stand apart in the source and are kept apart here.

How the values were obtained:
human UDG [1] = target: T1, human UDG (Homo sapiens, UniProt P13051); assay: Gel-based DNA cleavage assay with a single U:A basepair; type: biochemical; design: 6xHis; purchased XTAL Biostructures; host or cells: Sf9 insect cells
Description: 20% polyacrylamide nucleic acid urea gel electrophoresis was used to resolve the DNA bands at room temperature, 200 v for 50 min. Analysis and quantification of DNA cleavage were done as follows. A background subtraction step was included using the 23mer from the DNA only lane. […] A single oxo-guanine: cytosine base pair DNA with a Cy3 fluorescent tag on the 3′ end was used (10 nM).
Following pre-incubation occurred for 20 min at 37° C., 2 μL of U:A DNA (500 nM stock) was added to initiate the reaction, total reaction volume of 50 μL/well. Each plate was incubated for 120 min at 37° C. Then, each 96 well plate was sealed and heated at a constant temperature of 95° C. for 55 min using the CFX96 real time system thermocycler. After the heating process, 5 μL of a bromophenol blue denaturing loading dye (20milligrams of bromophenol blue, 9.7 ml of formamide plus 300 μL of 10M NaOH) was added to each reaction well. […] TBE buffer was prepared by dissolving 54 grams of tris base, 28 grams of boric acid, and 4.5 grams of EDTA in 1.0 liter of distilled H2O. Gels were processed at 200V for 60 min in the dark. Gels were imaged based on the fluorescent tags using Typhoon Trio+Variable Mode Imager (Amersham Biosciences) with excitation and emission wavelengths set to 532 nm and 585 nm respectively, photomultiplier tube voltage (PMT) was set to 400V, and pixel size resolution set to 100 μm. Gel data were analyzed using ImageJ software. DNA bands were corrected using a background subtraction step. Percent cleavage was calculated by using fluorescence intensity of the cleaved 23-mer DNA strand divided by the sum of the fluorescence bands (23mer+40mer DNA strands)*100. Relative percent cleavage was generated by using the untreated DMSO condition divided by each treated drug dose*100.
Target sequence in this assay (P13051 1-304 isoform P13051-2): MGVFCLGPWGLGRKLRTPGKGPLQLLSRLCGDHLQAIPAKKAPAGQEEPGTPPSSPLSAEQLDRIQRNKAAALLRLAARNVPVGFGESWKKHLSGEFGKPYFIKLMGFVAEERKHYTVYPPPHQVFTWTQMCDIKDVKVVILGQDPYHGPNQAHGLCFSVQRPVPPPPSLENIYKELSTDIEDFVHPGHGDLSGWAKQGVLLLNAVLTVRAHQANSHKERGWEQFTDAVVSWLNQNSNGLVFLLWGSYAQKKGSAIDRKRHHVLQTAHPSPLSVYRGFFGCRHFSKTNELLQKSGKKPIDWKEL

[2] = test system: T:G basepairs (TDG, MBD4) repair in MCF-7 cells; assay: Host-cell reactivation assay, T:G reporter, MCF-7; type: cell-based, human; conditions: ATA 2.5 μM
Description: Panel A: 1.25 μM and panel B: 2.5 μM. Reporter expression was calculated for each dose of ATA as described in prior publications and normalized to DMSO treatment.
Removal of uracil in cells was measured using a reporter plasmid containing a dU:dG base pair (referred to as BFP_U), as described previously. In brief, dU is substituted into the transcribed strand at position 191 of the blue fluorescent protein (BFP) gene. When RNA polymerase II incorporates dA opposite dU, transcripts encoding wild type BFP are produced. Upon repair, dU is replaced by dC, leading to production of transcripts encoding a non-fluorescent protein. […] A corresponding cocktail of damage-free plasmids containing pmax BFP (100 ng per transfection), pmax GFP (100 ng per transfection), and carrier plasmid (800 ng per transfection) constituted the “undamaged” cocktail. After normalizing to expression of the pmax,GFP transfection control, expression of BFP_U in the damaged cocktail was normalized to similarly normalized expression of pmax_BFP in the undamaged cocktail. The reciprocal of BFP_U reporter expression was calculated for each experimental condition. […] This creates a premature stop codon, completely abolishing fluorescence. Removal of thymidine followed by insertion of dC opposite dG restores reporter fluorescence.

[3] = test system: uracil removal in wild type HAP cells; assay: Host-cell reactivation assay, uracil removal, wild type HAP cells; type: cell-based, human; conditions: ATA 5.0 μM
Description: A: MCF-7 cells were seeded at 50,000 cells per well in a 12-well plate. B: HAP cells (wild type or UNG gene knockout) were seeded at 75,000 cells per well in a 6-well plate. […] After 24 hours, cells were dissociated by trypsinization and analyzed by flow cytometry using an Atune NxT flow cytometer. Gating and compensation were determined by transfection of single-color controls. Reporter expression was calculated for each dose of ATA as previously described in publications and normalized to DMSO treatment.
Removal of uracil in cells was measured using a reporter plasmid containing a dU:dG base pair (referred to as BFP_U), as described previously. […] The reciprocal of BFP_U reporter expression was calculated for each experimental condition. […] This creates a premature stop codon, completely abolishing fluorescence. Removal of thymidine followed by insertion of dC opposite dG restores reporter fluorescence.
Human breast cancer MCF-7 cells were seeded at 50,000 cells per well in a 12-well plate, while HAP cells (wild type or UNG knockout) were seeded at 75,000 cells per well in a 6-well plate. […] After 24 hours, cells were dissociated by trypsinization and analyzed by flow cytometry using an Atune NxT flow cytometer. Gating and compensation were determined by transfection of single-color controls. […]

human UDG [4] = target: T1, human UDG; assay: Differential scanning fluorimetry (nanoDSF), intrinsic tryptophan fluorescence and scattering; type: binding; design: Full-length UDG at 14 μM in 137 mM NaCl
Description: The data for thermophoresis was recorded at 20° C. using the blue LED at 20% and IR-Laser at 40%. The isotherm derived from the raw data and fitted according to the law of mass action. […] Then 2 μL of 10× Sypro dye and 2 μL of ddH20 (Applied biosystems cat #4461141) were added. Monitoring of fluorescence took place for 2 hr (Bioraid CFX96, Hex filter, 25-97° C., 1.6° C./2 min). Negative (−) derivative RFU raw data and plots from the machine were obtained and analyzed. […] Melting temperature (Tm) value was taken directly from the midpoint on the −dRFU/dt vs. temperature graph. Each point on the graph represents an average of three data sets. Y error bars represent the standard deviation.
Differential scanning fluorimetry (DSF) measurements were performed on a Prometheus NT.48 instrument (NanoTemper Technologies, Munich, Germany). […] The capillaries were filled with 10 μL sample and placed on the sample holder. A temperature gradient of 1° C.·min^−1 from 25 to 90° C. was applied and the intrinsic protein fluorescence at 330 and 350 nm was recorded. Additional aggregation onset temperatures are detected via back-reflection light scattering. […] Therefore, analysis of single wavelength was used to determine the melting temperature.
Target sequence in this assay (P13051 whole entry): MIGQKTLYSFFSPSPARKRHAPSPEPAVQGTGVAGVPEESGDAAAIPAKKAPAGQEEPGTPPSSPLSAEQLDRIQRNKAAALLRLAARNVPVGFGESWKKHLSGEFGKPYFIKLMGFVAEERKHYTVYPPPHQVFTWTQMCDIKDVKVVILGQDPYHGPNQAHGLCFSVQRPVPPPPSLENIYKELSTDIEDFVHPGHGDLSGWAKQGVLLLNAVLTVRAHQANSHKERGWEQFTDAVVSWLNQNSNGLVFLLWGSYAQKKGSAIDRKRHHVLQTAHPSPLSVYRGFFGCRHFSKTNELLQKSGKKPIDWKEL

With `O=C(O)C1=CC(=C(c2ccc(O)c(C(=O)O)c2)c2ccc(O)c(C(=O)O)c2)C=CC1=O` [ATA, aurintricarboxylic acid] the “UDG-mediated DNA cutting activity” value (human UDG [1]; ATA 0.46-12.5 μM, UDG 500 pM, DNA 20 nM) was “diminishes UDG-mediated DNA cutting activity in a dose-dependent manner”, the IC50 (human UDG [1]; dsDNA oligo with single U:A base pair, gel-based, read-out: average IC50 towards UDG) was 700 nM and ~700 nM and the IC50 (human UDG [1]; estimated, read-out: IC50, DNA cutting) was 700 nM. For the same compound, the “inhibition of repair of T:G basepair” value [2] was “not inhibiting”, the “reduction of uracil removal in wild type cells” value [3] was 1.8 fold and the “share of the effect of UDG knockout” value [3] was 60%. The “protein aggregation onset (scattering)” value (human UDG [4]; UDG in the presence of ATA vs UDG alone) was “induced protein aggregation at lower temperatures than UDG alone” and the “mean melting temperature of UDG in the presence of ATA” value (human UDG [4]; nanoDSF, 330 nm, UDG alone 53.5 °C) was 51 °C.
